Reference: publication PMC4981864, “Novel pH-Sensitive Cyclic Peptides” (Scientific Reports, 2016)

What was measured:
[1] = type: physicochemical; details: pH 8
Protocol: Large unilamellar vesicles (LUVs) were prepared by extrusion. POPC, 1-palmitoyl-2-oleoyl-sn-glycero-3-phosphocholine (Avanti Polar Lipids), or a mixture of POPC with 0.5% of 18:1 NBD-PE, 1,2-dioleoyl-sn-glycero-3-phosphoethanolamine-N-7-nitro-2-1,3-benzoxadiazol-4-yl ammonium salt (Avanti Polar Lipids) were dissolved in chloroform, desolvated on a rotary evaporator, and dried under high vacuum for several hours. The phospholipid film was then rehydrated in 10 mM phosphate buffer pH 8.0, vortexed until the lipid bilayer was completely dissolved, and repeatedly (15–21 times) extruded through the membranes with 50 nm pore sizes to obtain LUVs.
pH-dependent partitioning of the peptides into a lipid bilayer of the membrane was investigated by the shift of the position of the fluorescence spectral maximum for the peptides in the presence POPC liposomes induced by a drop of pH from 8 to 2.5 by the addition of HCl. The peptides were incubated overnight with 50-nm POPC liposomes (final concentration of the peptides and POPC in solution was 5 μM and 1 mM, respectively), and pH decrease was achieved by the addition of aliquots of 4, 2, 1 and 0.1 M HCl. pH was measured by micro-electrode probe (Thermo Electron Corporation, Orion Ross Micro pH electrode). Fluorescence spectra were recorded at each pH value. The spectra were analyzed by the decomposition algorithms using on-line PFAST toolkit[47] (Protein Fluorescence and Structural Toolkit: http://pfast.phys.uri.edu/) to establish the position of the emission maximum. Finally, the positions of the fluorescence spectral maxima (λmax) were plotted versus pH, and the Henderson–Hasselbalch equation was used to fit the data (using Origin 8.5 software): […]
where [drawing 3] and [drawing 4] are the beginning and the end of the transition, respectively, and pKa – is the midpoint of the transition.

[2] = test system: 4T1 mammary tumors; test: Ex vivo fluorescence imaging of tumor and organs after IV Alexa546-peptides; type: in vivo; details: 24 hours after IV, three mice
Protocol: The murine 4T1 xenograft model, which closely mimics stage IV of human breast cancer, was used in our study. Small 4T1 tumor (tumor volume <150 mm^3) generates a significant level of lactate and serves as a good model of an aggressive, acidic tumor[35]. All peptides were covalently conjugated with Alexa546-malemide. […] The mean fluorescence of tumor, muscle, kidney, liver and lungs were recorded and analyzed (Fig. 6).
All animal studies were conducted according to the animal protocol AN04-12-011 approved by the Institutional Animal Care and Use Committee at the University of Rhode Island, in compliance with the principles and procedures outlined by NIH for the Care and Use of Animals. 4T1 breast tumors were established by subcutaneous injection of 4T1 cells (8 × 10^5 cells/0.1 mL/flank) in the right flank of adult female BALB/c mice (about 19–22 g weight) obtained from Harlan Laboratories. When tumors reached about 6 mm in diameter single tail vein injections of 100 μl of 40 μM Alexa546-peptides were performed. […] Mean fluorescence intensity of tumor and organs was calculated using Kodak software.

O=C(O)CC[C@@H]1NC(=O)[C@H](CS)NC(=O)[C@H](Cc2c[nH]c3ccccc23)NC(=O)[C@H](Cc2c[nH]c3ccccc23)NC(=O)[C@H](Cc2c[nH]c3ccccc23)NC(=O)[C@H](Cc2c[nH]c3ccccc23)NC(=O)[C@H](Cc2c[nH]c3ccccc23)NC(=O)[C@H](CCC(=O)O)NC(=O)[C@H](CCC(=O)O)NC(=O)[C@H](CCC(=O)O)NC1=O [c[E4W5C]]
apparent pK (pKa) of peptide's partitioning into the bilayer [1]: 5.7 | Tumor/Muscle ratio [2]: 5.6
